Measurements reported in patent US20150079000A1, “Labelled Quinoxaline Derivatives as Multimodal Radiopharmaceuticals and Their Precursors” (INSTITUT NATIONAL DE LA SANTET DE LA RECHERCHE MEDICALE, priority 2012, published 2015).

Key:
melanin polymers = assay: Biodistribution by secondary ion mass spectrometry (SIMS) analysis; type: in vivo, C57BL/6J mice; conditions: B16BL6 melanoma cells colony in lung, 1 h after i.v. 0.1 μmol/mice
Protocol: B16BL6 cells were injected intravenously into male C57BL/6J mice to obtain, within 12 days, tumour cell colonies in lungs mimicking pulmonary micrometastases. After i.v. administration of compound (1) (0.1 μmol/mice in 0.2 mL of a hydroalcoholic solution (5% v/v, 0.9% NaCl) per mouse), mice were killed 1 h post injection. Lungs were removed and small pieces of tissue including B16 melanoma colonies were isolated and fixed by slam freezing on an LN2-precooled metal mirror. Samples were dehydrated by freeze drying starting at −110 to −10° C. before embedding in Spurr resin. Serial sections of 0.4 μm thick were deposited on stainless steel holders for SIMS analysis or on glass slides for light microscopy observation.

[1] = system: SKMEL-3 human melanoma model; assay: Internal radiotherapy with [131I](1), SKMEL-3 model; type: in vivo, mice
Protocol: Compound (1) was labelled with iodine-131, at high specific activity, from the corresponding stannane precursor, as described in detail in example 8. The labeling was performed with a radiochemical yield of 80% and a radiochemical purity>99%. […] The antitumour activity of the compound [^131I](1) was also evaluated in SKMEL-3 human melanoma model after injections of 25 MBq of [^131I](1): Two groups of mice were used receiving two injections at day-33 and day-40 or three injections of at day-33, day-40 and day-47 post inoculation. Results were compared to control group injected with saline.

melanoma model B16BL6 = assay: Internal radiotherapy with [131I](1), B16BL6 model; type: in vivo, mice
[2] = octanol/water (PBS buffer) partition coefficient (log D); type: physicochemical
[3] = Calculation of absorbed dose to the tumour and organs (MIRD); type: in vivo, C57BL/6J mice; conditions: iodine 131

SMILES: CCN(CCNC(=O)c1cnc2cc(I)ccc2n1)CCOCCOCCOCCF [Compound 1, N-(12-ethyl-1-fluoro-3,6,9-trioxa-12-azatetradecan-14-yl)-6-iodoquinoxaline-2-carboxamide]
- colocalisation with melanin polymers (SIMS, CN− and iodine-127 signals) (melanin polymers): perfect colocalisation

SMILES: CCN(CCNC(=O)c1cnc2cc([131I])ccc2n1)CCOCCOCCOCCF [[^131I](1)]
- tumour doubling time ([1]; SKMEL-3 tumours, injections of 25 MBq once weekly for 2 or 3 weeks): 26.5 ± 7.8 days
- median survival time ([1]; treated SKMEL-3 bearing-mice): 111 days
- metastasis dissemination (melanoma model B16BL6; B16BL6 melanoma model): inhibition of metastasis dissemination
- tumour doubling time (melanoma model B16BL6; B16BL6 tumours, two i.v. injections of 20 MBq at day-7 and day-11): 2.9 ± 0.5 days
- median survival time (melanoma model B16BL6; treated B16BL6 bearing-mice): 27 days
- octanol/water (PBS buffer) partition coefficient (log D) [2]: 0.95±0.04
- Biological half life (h) ([3]; Adipose): 38.28 h
- Effective half life ([3]; Adipose): 47.78 h
- Biological half life (h) ([3]; Bladder (empty)): 27.57 h
- Effective half life ([3]; Bladder (empty)): 32.17 h
- Biological half life (h) ([3]; Blood): 27.45 h
- Effective half life ([3]; Blood): 32.02 h
- Biological half life (h) ([3]; Brain): 27.55 h
- Effective half life ([3]; Brain): 41.63 h
- Biological half life (h) ([3]; Colon with Faeces): 28.48 h
- Effective half life ([3]; Colon with Faeces): 26.92 h
- Biological half life (h) ([3]; Eyes): 125.03 h
- Effective half life ([3]; Eyes): 356.77 h
- Biological half life (h) ([3]; Heart): 68.51 h
- Effective half life ([3]; Heart): 46.93 h
- Biological half life (h) ([3]; Kidney): 27.60 h
- Effective half life ([3]; Kidney): 32.22 h
- Biological half life (h) ([3]; Liver): 25.87 h
- Effective half life ([3]; Liver): 29.89 h
- Biological half life (h) ([3]; Lung): 37.73 h
- Effective half life ([3]; Lung): 34.21 h
- Biological half life (h) ([3]; Muscle): 37.36 h
- Effective half life ([3]; Muscle): 46.36 h
- Biological half life (h) ([3]; Pancreas): 29.04 h
- Effective half life ([3]; Pancreas): 40.79 h
- Biological half life (h) ([3]; Skin): 46.20 h
- Effective half life ([3]; Skin): 60.79 h
- Biological half life (h) ([3]; Small Bowels): 23.67 h
- Effective half life ([3]; Small Bowels): 26.99 h
- Biological half life (h) ([3]; Spleen): 33.66 h
- Effective half life ([3]; Spleen): 33.43 h
- Biological half life (h) ([3]; Stomach): 27.36 h
- Effective half life ([3]; Stomach): 31.89 h
- Biological half life (h) ([3]; Testes): 27.57 h
- Effective half life ([3]; Testes): 32.16 h
- Biological half life (h) ([3]; Tumour): 71.67 h
- Effective half life ([3]; Tumour): 114.18 h
- Biological half life (h) ([3]; bones): 12.92 h
- Effective half life ([3]; bones): 13.85 h
